Results reported in patent publication US8394789B2, “(Dihydro)pyrrolo[2,1-α]isoquinolines” (MSD Oss B.V., priority 2008, dated 2013).

Experiments:
human FSH receptor = molecular target: T1, human FSH receptor (Homo sapiens, UniProt P23945); experiment: hFSHRago (CHO luc): agonistic activity at the human FSH receptor expressed in CHO cells, CRE-luciferase reporter; type: cell-based; details: CHO cells stably transfected with human FSH receptor and CRE/luciferase reporter; 4 hours of incubation
T1 construct: expressed in transfected cells
T1 sequence (P23945 18-695): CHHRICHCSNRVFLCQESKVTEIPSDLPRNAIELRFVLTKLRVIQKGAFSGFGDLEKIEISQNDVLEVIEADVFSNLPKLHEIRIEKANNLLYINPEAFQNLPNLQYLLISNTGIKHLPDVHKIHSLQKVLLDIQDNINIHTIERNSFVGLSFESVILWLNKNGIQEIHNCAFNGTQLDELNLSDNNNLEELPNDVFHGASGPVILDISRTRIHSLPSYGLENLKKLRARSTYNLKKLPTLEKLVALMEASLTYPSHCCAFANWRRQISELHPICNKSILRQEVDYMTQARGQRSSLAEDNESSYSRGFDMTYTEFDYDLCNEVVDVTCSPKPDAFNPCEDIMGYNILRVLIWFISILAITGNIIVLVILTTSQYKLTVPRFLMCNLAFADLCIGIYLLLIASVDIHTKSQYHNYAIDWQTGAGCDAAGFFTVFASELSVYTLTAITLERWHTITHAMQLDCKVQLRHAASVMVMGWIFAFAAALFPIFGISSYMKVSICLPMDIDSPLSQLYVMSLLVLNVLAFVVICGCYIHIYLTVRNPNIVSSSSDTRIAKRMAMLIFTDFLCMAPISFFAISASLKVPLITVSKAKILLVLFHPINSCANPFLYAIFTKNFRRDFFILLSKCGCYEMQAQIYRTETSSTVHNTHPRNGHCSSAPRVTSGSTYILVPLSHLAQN

SMILES	melting point [°C]	EC50 (human FSH receptor) [nM]
COc1cc2c(cc1OC(C)C)-c1c(-c3cccs3)cc(C(=O)N3CCCN(C(C)=O)CCC3)n1CC2 [Example 16, 1-[5-(9-Isopropoxy-8-methoxy-1-thiophen-2-yl-5,6-dihydro-pyrrolo[2,1-α]isoquinoline-3-carbonyl)-[1,5]diazocan-1-yl]-ethanone]	153 to 155	5
COc1cc2c(cc1OC(C)C)-c1c(-c3cccs3)cc(C(=O)N3CC4CC(C3)c3cccc(=O)n3C4)n1CC2 (stereo not drawn) [Example 18, 3-(9-Isopropoxy-8-methoxy-1-thiophen-2-yl-5,6-dihydro-pyrrolo[2,1-α]isoquinoline-3-carbonyl)-1,2,3,4,5,6-hexahydro-1,5-methano-pyrido[1,2-α][1,5]diazocin-8-one]	260	37.3
COc1cc2c(cc1OC(C)C)-c1c(-c3cccs3)cc(C(=O)N3CC4CC(C3)C3CCCC(=O)N3C4)n1CC2 (stereo not drawn) [Example 19, 3-(9-Isopropoxy-8-methoxy-1-thiophen-2-yl-5,6-dihydro-pyrrolo[2,1-α]isoquinoline-3-carbonyl)-decahydro-1,5-methano-pyrido[1,2-α][1,5]diazocin-8-one]	207 to 208	29.4
COc1cc2c(cc1OC(C)C)-c1c(-c3cccs3)cc(C(=O)N3C[C@H]4C[C@@H](NC(C)=O)C[C@H]4C3)n1CC2 [Example 25, N-[-2-(9-isopropoxy-8-methoxy-1-thiophen-2-yl-5,6-dihydro-pyrrolo[2,1-α]isoquinoline-3-carbonyl)-octahydro-cyclopenta[c]pyrrol-5-endo-yl]-acetamide]	106 to 112	45.4
COc1cc2c(cc1OC(C)C)-c1c(-c3cccs3)cc(C(=O)N(C)C(C)(C)CO)n1CC2 [Example 30, 9-Isopropoxy-8-methoxy-1-thiophen-2-yl-5,6-dihydro-pyrrolo[2,1-α]isoquinoline-3-carboxylic acid (2-hydroxy-1,1-dimethyl-ethyl)-methyl-amide]	150 to 152	1
COc1cccc(Oc2cc3c(cc2OC)CCn2c(C(=O)N(C)C(C)(C)C)cc(-c4cccs4)c2-3)c1 [Example 74, N-tert-butyl-8-methoxy-9-(3-methoxyphenoxy)-N-methyl-1-(thiophen-2-yl)-5,6-dihydropyrrolo[2,1-α]isoquinoline-3-carboxamide]	176 to 177	203
COc1cc2c(cc1Oc1cccc(F)c1)-c1c(-c3cccs3)cc(C(=O)N(C)C(C)(C)C)n1CC2 [Example 75, 9-(3-Fluoro-phenoxy)-8-methoxy-1-thiophen-2-yl-5,6-dihydro-pyrrolo[2,1-α]isoquinoline-3-carboxylic acid tert-butyl-methyl-amide]	158 to 159	16.3
COc1cc2c(cc1Oc1ncccn1)-c1c(-c3cccs3)cc(C(=O)N(C)C(C)(C)C)n1CC2 [Example 76, N-tert-butyl-8-methoxy-N-methyl-9-(pyrimidin-2-yloxy)-1-(thiophen-2-yl)-5,6-dihydro-pyrrolo[2,1-α]isoquinoline-3-carboxamide]	164 to 165	18.9
COc1cc2c(cc1CCC(C)(C)O)-c1c(-c3cccs3)cc(C(=O)N(C)C(C)(C)C)n1CC2 [Example 92, 9-(3-Hydroxy-3-methyl-butyl)-8-methoxy-1-thiophen-2-yl-5,6-dihydro-pyrrolo[2,1-α]isoquinoline-3-carboxylic acid tert-butyl-methyl-amide]	153 to 154	6
COc1cc2c(cc1NC(=O)c1cccnc1)-c1c(-c3cccs3)cc(C(=O)N(C)C(C)(C)C)n1CC2 [Example 102, 8-Methoxy-9-[(pyridine-3-carbonyl)-amino]-1-thiophen-2-yl-5,6-dihydro-pyrrolo[2,1-α]isoquinoline-3-carboxylic acid tert-butyl-methyl-amide]	223 to 224	13
CCOC(=O)CN(C)C(=O)c1cc(-c2ccsc2)c2n1CCc1cc(OC)c(OC)cc1-2 [Example 119c, [(8,9-Dimethoxy-1-thiophen-3-yl-5,6-dihydro-pyrrolo[2,1-α]isoquinoline-3-carbonyl)-methyl-amino]-acetic acid ethyl ester]	–	42
COc1cc2c(cc1OC)-c1c(-c3ccsc3)cc(C(=O)N(C)CC(=O)N(C)CC(C)C)n1CC2 [Example 119e, 8,9-dimethoxy-1-thiophen-3-yl-5,6-dihydro-pyrrolo[2,1-α]isoquinoline-3-carboxylic acid [(isobutyl-methyl-carbamoyl)-methyl]-methyl-amide]	–	1080
COc1cc2c(c(OC)c1)-c1c(-c3ccsc3)cc(C(=O)N(C)C(C)(C)C)n1CC2 [Example 120, 8,10-Dimethoxy-1-thiophen-3-yl-5,6-dihydro-pyrrolo[2,1-α]isoquinoline-3-carboxylic acid tert-butyl-methyl-amide]	–	699
COc1cc2c(cc1CO)-c1c(-c3cccs3)cc(C(=O)N(C)C(C)(C)C)n1CC2 [Example 121a, 9-Hydroxymethyl-8-methoxy-1-thiophen-2-yl-5,6-dihydro-pyrrolo[2,1-α]isoquinoline-3-carboxylic acid tert-butyl-methyl-amide]	–	10
COCc1cc2c(cc1OC)CCn1c(C(=O)N(C)C(C)(C)C)cc(-c3cccs3)c1-2 [Example 121b, 8-Methoxy-9-methoxymethyl-1-thiophen-2-yl-5,6-dihydro-pyrrolo[2,1-α]isoquinoline-3-carboxylic acid tert-butyl-methyl-amide]	–	1.6
COc1cc2c(cc1C(C)=O)-c1c(-c3cccs3)cc(C(=O)N3CCCC3(C)C)n1CC2 [Example 122, 1-[3-(2,2-Dimethyl-pyrrolidine-1-carbonyl)-8-methoxy-1-thiophen-2-yl-5,6-dihydro-pyrrolo[2,1-α]isoquinolin-9-yl]-ethanone]	–	2
COc1cc2c(cc1C(=O)Nc1nncs1)-c1c(-c3cccs3)cc(C(=O)N(C)C(C)(C)C)n1CC2 [Example 123, 8-Methoxy-1-thiophen-2-yl-5,6-dihydro-pyrrolo[2,1-α]isoquinoline-3,9-dicarboxylic acid 3-(tert-butyl-methyl-amide) 9-[1,3,4]thiadiazol-2-ylamide]	149 to 152	1
